Read-outs that look alike come from different tables or passages of the source. Marks after values point to notes of the source that are not given here.
Columns and labels:
human recombinant MAO-A = biological target: T1, human recombinant MAO-A (Homo sapiens, UniProt P21397); test: MAO-GLO luminescence assay of MAO-A catalytic activity; assay type: biochemical; conditions: for remaining activity at 1 µM: read-out: MAO-A residual activity
T1 sequence (P21397 1-527): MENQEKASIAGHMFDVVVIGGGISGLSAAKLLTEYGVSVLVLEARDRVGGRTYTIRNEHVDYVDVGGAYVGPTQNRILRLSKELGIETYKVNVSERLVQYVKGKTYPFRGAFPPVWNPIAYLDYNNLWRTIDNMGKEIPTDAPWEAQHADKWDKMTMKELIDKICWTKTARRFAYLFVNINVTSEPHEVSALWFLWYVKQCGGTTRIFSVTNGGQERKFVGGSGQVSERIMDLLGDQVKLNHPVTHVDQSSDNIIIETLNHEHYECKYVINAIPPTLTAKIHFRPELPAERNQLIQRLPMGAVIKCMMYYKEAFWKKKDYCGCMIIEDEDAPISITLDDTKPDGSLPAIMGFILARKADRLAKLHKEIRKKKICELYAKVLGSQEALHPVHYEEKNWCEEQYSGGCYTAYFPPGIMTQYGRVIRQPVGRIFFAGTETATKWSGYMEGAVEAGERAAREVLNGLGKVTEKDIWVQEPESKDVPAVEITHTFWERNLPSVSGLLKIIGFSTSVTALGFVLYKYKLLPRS
Procedure: (§1) Optimization of the compounds, however, aimed predominantly at elimination of MAO-A-inhibitory activity while keeping DYRK1A inhibitory potency, and not at achieving high selectivity for DYRK1A over CLK1. The tests were performed as described by us before in detail. Due to the very large number of test compounds (more than 60), a first screening was performed at a single inhibitor concentration of 1 µM.
(§2) Inhibitors were dissolved in DMSO at a concentration of 10 mM and stored at […]. Working solutions were prepared to achieve a final concentration of 1 µM in the enzyme assays.
Catalytic activity of monoamine oxidase A (MAO-A) was measured by using the luminescence-based MAO-GLO^TM Assay from Promega. Recombinant MAO-A converts a luminogenic MAO substrate into luciferin, which is, in turn, luminometrically detected in a luciferase reaction. The amount of light produced is directly proportional to MAO activity. […] Inhibitory effects of the tested compounds were calculated relative to the activity of control reactions that were run in the absence of inhibitors.

[1] = biological target: T2, GST-DYRK1A-ΔC (amino acids 1–499 of rat DYRK1A) (Rattus norvegicus, UniProt Q63470); test: Kinase-GLO luminescent assay of DYRK1A catalytic activity; assay type: biochemical; conditions: for remaining activity at 1 µM: read-out: DYRK1A residual activity
T2 construct: containing amino acids 1–499 of rat DYRK1A; made in house; host or cells: E. coli
Procedure: as §1, §2
(§3) Recombinant kinases were purified from E. coli as GST (glutathione S-transferase) fusion constructs by affinity adsorption to glutathione-Sepharose. […] Catalytic activity of the kinases was measured with the help of the Kinase-GLO^TM Luminescent Assay from Promega. Assays were performed in a total volume of 10 μL in kinase buffer (25 mM Hepes pH 7.4, 0.5 mM DTT, 5 mM MgCl2, 5 μM ATP) with appropriate peptide substrates (20 μM DYRKtide for the DYRKs and 100 μM DYRKtide for HIPK2, […]; or 100 μM RS peptide for CLK1, […]). Kinases amounts in the assays were adjusted so that approximately 90% of the ATP in the assay was consumed in control samples without inhibitor. Kinase reactions were incubated at room temperature for 30 min before 10 μL Kinase-GLO reagent was added for luminometric measurement of the ATP that was not consumed by the kinases. After incubation at room temperature for an additional 10 min, luminescence was recorded for 1 s (Berthold Orion Microplate Luminometer). ATP consumption in the control samples without inhibitor was set as 100% catalytic activity, and the inhibitory effects of the test compounds were calculated relative to this value.

[2] = biological target: T3, GST-CLK1cat (amino acids 141–484 of human CLK1) (Homo sapiens, UniProt P49759); test: Kinase-GLO luminescent assay of CLK1 catalytic activity; assay type: biochemical; conditions: for remaining activity at 1 µM: read-out: CLK1 residual activity
T3 construct: containing amino acids 141–484 of human CLK1; made in house; host or cells: E. coli
T3 sequence (P49759 141-484): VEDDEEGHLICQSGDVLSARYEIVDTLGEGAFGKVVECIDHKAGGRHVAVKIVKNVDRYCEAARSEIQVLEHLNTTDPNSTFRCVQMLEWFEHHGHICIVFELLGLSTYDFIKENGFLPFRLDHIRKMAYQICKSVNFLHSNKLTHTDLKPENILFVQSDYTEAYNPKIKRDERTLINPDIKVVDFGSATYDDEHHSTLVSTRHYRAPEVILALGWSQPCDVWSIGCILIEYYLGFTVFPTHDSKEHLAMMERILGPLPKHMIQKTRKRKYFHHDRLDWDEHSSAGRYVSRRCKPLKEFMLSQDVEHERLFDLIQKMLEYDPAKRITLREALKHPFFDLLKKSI
Procedure: as §1, §2, §3

[3] = tested on: GST-DYRK1A-ΔC (amino acids 1–499 of rat DYRK1A); test: Kinase-GLO luminescent assay of DYRK1A catalytic activity; assay type: biochemical; conditions: ratio of the MAO-A and DYRK1A IC50 values of Table 2
[4] = 1 µM inhibitor concentration, residual activity relative to control without inhibitor

| Molecule | remaining activity at 1 µM (human recombinant MAO-A; [4]) | remaining activity at 1 µM [1, 4] | remaining activity at 1 µM [2, 4] | other results |
| --- | --- | --- | --- | --- |
| COc1ccc2c3ccnc(C)c3n(CCOc3ccccc3)c2c1 [AnnH40, 7-Methoxy-1-methyl-9-(2-phenoxyethyl)-9H-pyrido[3,4-b]indole] | 30% | 40% | 37% | – |
| C#CCn1c2cc(OC)ccc2c2ccnc(C)c21 [AnnH44, 7-Methoxy-1-methyl-9-(prop-2-yn-1-yl)-9H-pyrido[3,4-b]indole] | 22% | 2% | 17% | – |
| Clc1ccc2c([nH]c3c(Br)nccc32)c1Cl [AnnH52, 1-Bromo-7,8-dichloro-9H-pyrido[3,4-b]indole] | 118% | 36% | 45% | – |
| COc1ccc2c3ccnc(C)c3n(CCN3CCOCC3)c2c1 [AnnH53, 4-[2-(7-Methoxy-1-methyl-9H-pyrido[3,4-b]indol-9-yl)-ethyl]morpholine] | 70% | 33% | 77% | melting point: 183 °C |
| COc1ccc2c3ccnc(C)c3n(CCN3CCCCC3)c2c1 [AnnH57, 7-Methoxy-1-methyl-9-[2-(piperidin-1-yl)ethyl]-9H-pyrido[3,4-b]indole] | 97% | 33% | 78% | – |
| Cc1nccc2c1[nH]c1c(Cl)c(Cl)ccc12 [AnnH63, 7,8-Dichloro-1-methyl-9H-pyrido[3,4-b]indole] | 32% | 3% | 26% | – |
| CCOC(=O)Cn1c2c(C)nccc2c2ccc(Cl)c(Cl)c21 [AnnH66, Ethyl 2-(7,8-Dichloro-1-methyl-9H-pyrido[3,4-b]-9-yl)acetate] | 78% | 26% | 71% | – |
| Cc1nccc2c3ccc(Cl)c(Cl)c3n(CC#N)c12 [AnnH69, 2-(7,8-Dichloro-1-methyl-9H-pyrido[3,4-b]indol-9-yl)acetonitrile] | – | – | – | remaining activity at 1 µM (human recombinant MAO-A): 101%; remaining activity at 1 µM [1]: 17%; remaining activity at 1 µM [2]: 33% |
| Cc1nccc2c3ccc(Cl)c(Cl)c3n(CCCN(C)C)c12 [AnnH71, 3-(7,8-Dichloro-1-methyl-9H-pyrido[3,4-b]-9-yl)-N,N-dimethylpropan-1-amine] | 110% | 47% | 90% | melting point: 126 to 128 °C |
| COc1ccc2c3ccnc(C)c3n(CC=C(C)C)c2c1 [AnnH73, 7-Methoxy-1-methyl-9-(3-methylbut-2-en-1-yl)-9H-pyrido[3,4-b]indole] | – | – | – | remaining activity at 1 µM (human recombinant MAO-A): 52%; remaining activity at 1 µM [1]: 6%; remaining activity at 1 µM [2]: 2% |
| N#CCn1c2c(Br)nccc2c2ccc(Cl)c(Cl)c21 [AnnH79, 2-(1-Bromo-7,8-dichloro-9H-pyrido[3,4-b]indol-9-yl)-acetonitrile] | 143% | 93% | 88% | – |
| CCOC(=O)Cn1c2cc(OC)ccc2c2ccnc(CC)c21 [AnnH88, Ethyl 2-(1-ethyl-7-methoxy-9H-pyrido[3,4-b]indol-9-yl)acetate] | 137% | 47% | 52% | – |
| CCc1nccc2c1[nH]c1cc(OC)ccc12 [AnnH89, 1-Ethyl-7-methoxy-9H-pyrido[3,4-b]indole] | 34% | 37% | 7% | – |
| COc1ccc2c(c1)[nH]c1c(C)cccc12 [AnnHOG3, 7-Methoxy-1-methyl-9H-carbazole] | 100% | 71% | 97% | – |
| COc1ccc2c(c1)C(=O)c1c-2ccnc1C [AnnHT2, 7-Methoxy-1-methyl-9H-indeno-[2,1-c]pyridin-9-one] | 15% | 55% | 54% | – |
| COc1ccc2c(c1)/C(=C\C#N)c1c-2ccnc1C [AnnHT5, (2E)-(7-Methoxy-1-methyl-9H-indeno[2,1c]pyridin-9-ylidene)ethanenitrile] | 65% | 35% | 7% | – |
| Cc1nccc2c1C(=O)c1cc(O)ccc1-2 [AnnHT6, 7-Hydroxy-1-methyl-9H-indeno-[2,1-c]pyridin-9-one] | 46% | 37% | 27% | – |
| COc1ccc2c(c1)[nH]c1cnccc12 [norharmine (AnnH90), norharmine] | 45% | 36% | 26% | – |
| harmol [reference compound] | – | – | – | MAO-A residual activity (human recombinant MAO-A; [4]): 120%; DYRK1A residual activity [1, 4]: 18%; CLK1 residual activity [2, 4]: 6 *** % |

The next lines start with results.

| remaining activity at 1 µM (human recombinant MAO-A; [4]) | remaining activity at 1 µM [1, 4] | remaining activity at 1 µM [2, 4] | Molecule | other results |
| --- | --- | --- | --- | --- |
| 102% | 5% | 10% | COc1ccc2c3ccnc(C)c3n(C(C)C#N)c2c1 (racemic) [AnnH43, (±)-2-(7-Methoxy-1-methyl-9H-pyrido[3,4-b]indol-9-yl)propanenitrile] | Selectivity for DYRK1A over MAO-A [3]: 26 |
| 114% | 22% | 44% | COc1ccc2c3ccnc(C)c3n(CCC#N)c2c1 [AnnH42, 3-(7-Methoxy-1-methyl-9H-pyrido[3,4-b]indol-9-yl)propanenitrile] | – |
| 67% | 48% | 85% | COc1ccc2c3ccnc(C)c3n(CCN3CCCC3)c2c1 [AnnH55, 7-Methoxy-1-methyl-9-[2-(pyrrolidin-1-yl)ethyl]-9H-pyrido[3,4-b]indole] | – |
| 19% | 30% | 15% | COc1ccc2c3ccnc(C)c3n(C(C)=O)c2c1 [AnnH59, 1-(7-Methoxy-1-methyl-9H-pyrido[3,4-b]indol-9-yl)ethan-1-one] | – |
| 122% | 17% | 34% | C#CCn1c2c(C)nccc2c2ccc(Cl)c(Cl)c21 [AnnH67, 7,8-Dichloro-1-methyl-9-(prop-2-yn-1-yl)-9H-pyrido[3,4-b]indole] | – |
| 112% | 12% | 46% | C#CCn1c2cc(OC)ccc2c2ccnc(Cl)c21 [AnnH74, 1-Chloro-7-methoxy-9-(prop-2-yn-1-yl)-9H-pyrido[3,4-b]indole] | – |
| 112% | 35% | 96% | CCOC(=O)Cn1c2cc(OC)ccc2c2ccnc(Cl)c21 [AnnH76, Ethyl 2-(1-Chloro-7-methoxy-9H-pyrido[3,4-b]indol-9-yl)acetate] | – |
| 123% | 63% | 86% | COc1ccc2c3ccnc(Cl)c3n(CCCN(C)C)c2c1 [AnnH77, 3-(1-Chloro-7-methoxy-9H-pyrido[3,4-b]indol-9-yl)-N,N-dimethylpropan-1-amine] | melting point: 86 to 87 °C |
| 123% | 95% | 84% | C#CCn1c2c(Br)nccc2c2ccc(Cl)c(Cl)c21 [AnnH80, 1-Bromo-7,8-dichloro-9-(prop-2-yn-1-yl)-9H-pyrido[3,4-b]indole] | – |
